# Where two headings read alike, the source gives them in different places.
# Experiments:
# [1] = test system: human breast cancer cells MDA-MB-231; test: Scratching assay, migration of MDA-MB-231 (Example 14); assay type: cell-based; settings: 20 μmol/L, 0-24 h
# Method: The inhibiting ability of 2-(4′-methyl-3′-nitrobenzoylamino)-3-indolylpropionic acid (TCI05), 2-(4′-methyl-3′-nitrobenzoylamino)-3-(4-hydroxy-phenyl) propionic acid (TCI06), 2-(4′-methyl-3′-nitrobenzenemethoxycarbonyl)-3-phenylpropionic acid (TCI07), 2-(4′-methyl-3′-nitrobenzenemethoxycarbonyl)-3-indolylpropionic acid (TCI08) for the migration of human breast cancer cells MDA-MB-231 was tested by scratching assay.
# The MDA-MB-231 cells in logarithmic growth phase were seeded in the 6-well plate at a density of 1×10^6/3 ml, and 12 h later, TCI05, TCI06, TCI07, TCI08 (formulation was the same as TCI04) was added, 150 μl per well, with the final concentration of 20 μmol/L. The negative control was 150 μL sterilized water with 2% DMSO. 48 h later, 200 ul tips were used to scratch, and after washing 4 times with PBS, 3 ml medium without fetal bovine serum was added per well. Under the inverted microscope, the distance of cell migration was recorded every 3 h, and photos were taken at 0 h and 24 h.
# [2] = test system: human breast cancer cell MDA-MB-231; test: Scratching assay, migration of MDA-MB-231 (Example 16); assay type: cell-based; settings: for average (scratch assay distance): control 13.1667
# Method: The inhibiting ability of 4-hydroxy-3-nitrobenzoic acid and 4-amino-3nitrobenzoic acid for the migration of human breast cancer cell MDA-MB-231 was tested by scratching assay.
# Three lines were marked on the underside of 6-well plate, MDA-MB-231 breast cancer cells in logarithmic growth phase were digested with 0.7 mL 0.08% trypsin for 1 min, and the digestion was stopped with complete culture medium. After centrifugation at 1000 r/min for 3 min, the supernatant was discarded, then 3 mL complete culture medium was added. After pipetting to make suspension of single cell, the cells in the cell suspension was counted, and the concentration of the cells was adjusted to a density of 5×10^5 cells/well to plate the 6 wells plate, and 6 groups of drugs containing complete culture medium (DMEM+10% FBS+1% Penicillin-Streptomycin+drug) were added. After culturing in a incubator for 12 h until the cells were attached, the culture medium was removed, 20 μL tips were used to scratch vertically to the three transverse lines on the underside to obtain 6 distances for counting, and after washing with phosphate buffered saline (PBS) three times, 6 groups of drugs containing culture medium without FBS (DMEM+drug) were added respectively, and the width of the scratches were observed and recorded at 0 h, 3 h, 6 h, 9 h, 12 h and 24 h under inverted microscope, with 6 distances being recorded per well, wherein, photos were taken with inverted microscope at 0 h and 24 h for recording.
# MDA-MB-231 cells = test: MTT assay, synergistic effect with Paclitaxel (Example 12); assay type: cell-based, human; settings: Homo sapiens
# Method: Synergistic effects of (S)2-(4′-methyl-3′-nitrobenzoylamino)-3-phenylpropionic acid and Paclitaxel was tested by MTT assay.
# 1) The MDA-MB-231 cells in logarithmic growth phase were seeded in the 96-well plate at a density of 4×10^3/0.2 ml. After culturing for 12 h, 10 μl Paclitaxel solution was added, with the final concentration of 0, 0.001, 0.01, 0.1, 1, 10, 50, 100, 200 μM, then 10 μL (S)2-(4′-methyl-3′-nitrobenzoylamino)-3-phenylpropionic acid PBS solution was add to half of the wells for each group with the final concentration of 20 μM, followed by continuous culturing for 24 or 48 h.
# 2) 5 mg/mL MTT solution was prepared with sterilized PBS, filtered with 0.22 μm film, and diluted with medium to 1 mg/mL. After discarding the medium in the 96-well plate, 100 μL 1 mg/mL MTT working solution was added, followed by continuous culturing for 5 h.
# 3) MTT working solution was discarded, and 150 μL DMSO was added per well (note: to away from light). The plate was shaken on a horizontal shaker at 170 rpm for 10 min, and then the absorbance at 490 nm was detected by microplate reader.
# 4T1-luciferase cells = test: In situ model of breast cancer in nude mouse, lung metastasis by in vivo imaging (Example 7); design: species or system nude mice; settings: 50 mg/kg tail vein, twice a day, 21 days; P<0.01
# Method: 4) An in situ breast cancer model is constructed by in situ inoculating nude mice with 4T1 cells which are stably transfected with Luciferase, and the number of metastatic tumors on the lung is detected by in vivo imaging system. Such a model mimics the occurrence and metastasis of breast cancer.
# The ability of (S)2-(4′-methyl-3′-nitrobenzoylamino)-3-phenylpropionic acid for inhibiting tumor metastasis in vivo was tested by in situ model of breast cancer in nude mouse.
# 1) Mice grouping: Nude female mice of SPF grade, 5 weeks old, 18˜22 g, 8 mice for each group;
# 2) The mother liquid of (S)2-(4′-methyl-3′-nitrobenzoylamino)-3-phenylpropionic acid (TCI04) for the dosage form administrated by intravenous injection was diluted to 2 mg/mL, 0.1 mg/mL by adding sterilized water. The dosage for administration in mice was as follows, high dosage of 20 mg/kg; low dosage of 1 mg/kg. […]
# 3) 4T1-luciferase cells in logarithmic growth phase were digested with 0.05% typsine for 1 min, after centrifugation at 1000 rpm for 5 min, the supernatant was discarded and the cells were resuspended and counted. […]
# 5) After the completion of the administration, the mice were detected by in vivo imaging system for the condition of tumor metastasis and immediately sacrificed; the lungs alone were detected by the in vivo imaging system for the light intensity to determine the number of tumor metastasis.
compound,measurement,setting,value
2-(4′-methyl-3′-nitrobenzoylamino)-3-indolyl propionic acid [TCI05],inhibition of migration ability (coalescence speed of cell scratch vs negative control),[1],obviously inhibit
Nc1ccc(C(=O)O)cc1[N+](=O)[O-] [4-amino-3-nitrobenzoic acid],inhibition of migration ability (coalescence speed of cell scratch vs negative control),[2],obviously inhibit
same,average (scratch assay distance),[2],8.1667 10^−2 mm
O=C(O)c1ccc(O)c([N+](=O)[O-])c1 [4-hydroxy-3-nitrobenzoic acid],inhibition of migration ability (coalescence speed of cell scratch vs negative control),[2],obviously inhibit
same,average (scratch assay distance),[2],8 10^−2 mm
CC(=O)O[C@H]1C(=O)[C@@]2(C)[C@H]([C@H](OC(=O)c3ccccc3)[C@]3(O)C[C@H](OC(=O)[C@H](O)[C@@H](NC(=O)c4ccccc4)c4ccccc4)C(C)=C1C3(C)C)[C@]1(OC(C)=O)CO[C@@H]1C[C@@H]2O [Paclitaxel],IC50,"MDA-MB-231 cells; MDA-MB-231, 24 h, Paclitaxel + 20 μM (S)2-(4′-methyl-3′-nitrobenzoylamino)-3-phenylpropionic acid, read-out: IC50 after 24 h",395 nM
same,IC50,"MDA-MB-231 cells; MDA-MB-231, 24 h, Paclitaxel alone, read-out: IC50 after 24 h",3970 nM
same,IC50,"MDA-MB-231 cells; MDA-MB-231, 48 h, Paclitaxel + 20 μM (S)2-(4′-methyl-3′-nitrobenzoylamino)-3-phenylpropionic acid, read-out: IC50 after 48 h",46 nM
same,IC50,"MDA-MB-231 cells; MDA-MB-231, 48 h, Paclitaxel alone, read-out: IC50 after 48 h",512 nM
"Cc1ccc(C(=O)O)cc1[N+](=O)[O-] [TCI01, 4-methyl-3-nitrobenzoic acid, reference compound]",light intensity of the whole lung vs negative control,4T1-luciferase cells,significantly weaker than the negative control
"Cc1ccc(C(=O)NC(Cc2ccc(O)cc2)C(=O)O)cc1[N+](=O)[O-] (stereo not shown) [TCI06, 2-(4′-methyl-3′-nitrobenzoylamino)-3-(4-hydroxy-phenyl)propionic acid]",inhibition of migration ability (coalescence speed of cell scratch vs negative control),[1],obviously inhibit
"Cc1ccc(COC(=O)C(Cc2ccccc2)C(=O)O)cc1[N+](=O)[O-] (stereo not shown) [TCI07, 2-(4′-methyl-3′-nitrobenzenemethoxycarbonyl)-3-phenylpropionic acid]",inhibition of migration ability (coalescence speed of cell scratch vs negative control),[1],obviously inhibit
"Cc1ccc(COC(=O)C(Cc2c[nH]c3ccccc23)C(=O)O)cc1[N+](=O)[O-] (stereo not shown) [TCI08, 2-(4′-methyl-3′-nitrobenzenemethoxycarbonyl)-3-indolylpropionic acid]",inhibition of migration ability (coalescence speed of cell scratch vs negative control),[1],obviously inhibit
